| SMILES | melting point [°C] |
| --- | --- |
| OC1CC(c2ccccc2)NC2(CCCC2)C1 (stereo not given) | 240 to 243 |
| CC1(c2ccccc2)CNCCO1 (stereo not given) | 36 |
| O=Cc1ccc(Cn2cccn2)cc1 | 57 to 59 |
| Cc1cn(C2CCC(CO)O2)c(=O)[nH]c1=O (stereo not given) | 156 |
| C=C1C(C(=O)O)C1C(=O)O (stereo not given) | 197 to 201 |
| CN1C(=O)C(=NNc2c(Br)cc(Br)cc2Br)C(=O)N(C)C1=O | 165 |
| C#CC#C | -36.4 |
| Cc1ccc(NC(=O)N(C)C)cc1Cl | 148 |
| COc1ccc(F)cc1C=O | 41 to 46 |
| O=C(O)CCCCCCCCCCCCCCC(=O)O | 124 to 126 |
| Cc1cc(C(C#N)c2ccc(Cl)cc2)c(Cl)cc1NC(=O)c1cc(I)cc(I)c1O (stereo not given) | 218 |
| Cn1cnc([N+](=O)[O-])c1Cl | 146 to 150 |
| O=C(CBr)c1ccc(OC(F)(F)F)cc1 | 55 to 58 |
| O=C(CBr)c1ccc2c(c1)OCCCO2 | 78 to 80 |
| Nc1ccc2[nH]ccc2c1 | 132 |
| NC(=O)N1c2ccccc2CC(=O)c2ccccc21 | 216 |
| Cc1ccnc(Cl)n1 | 47 |
| O=Cc1cccc2ccccc12 | 33.5 |
| C#CC1(O)CCC2(C)C(CCC3C2CCC2(C)C(OC(C)=O)CCC32)C1 (stereo not given) | 196 |
| COc1ccc(C=C(C(=O)O)C(=Cc2ccc(OC)cc2)C(=O)O)cc1 | 263 |
| CON(C)C(=O)Nc1ccc(Br)c(Cl)c1 | 96 |

| SMILES | melting point [°C] |
| --- | --- |
| CCCCC(=O)c1ccc(O)cc1 | 62 to 65 |
| Clc1nc(Br)ns1 | 24 to 25 |
| CCOC(=O)Cc1ccc(N)cc1 | 48 to 50 |
| CC(=Cc1ccc(F)cc1)[N+](=O)[O-] | 64 to 67 |
| O=C(O)C(=CN(O)c1ccccc1)c1ccccc1 | 75 |
| CCCc1cc(C(N)=S)ccn1 | 137 |
| Nc1c(Oc2ccccc2)c(Oc2ccccc2)c(N)c2c1C(=O)c1ccccc1C2=O | 195 |
| CCC(C)Nc1ccc(NC(C)CC)cc1 (stereo not given) | 18 |
| C1CSC2=C(S1)SC(=C1SC3=C(SCCS3)S1)S2 | 244 |
| CCCC(=O)c1c(C)cc(C)c(C2CC(=O)C(C(CC)=NOCC)=C(O)C2)c1C (stereo not given) | 80.8 |
| CN1COCc2c1ccc1cc3ccc(N)c(CO)c3nc21 | 235 |
| CCP(=S)(CC)CC | 95 |
| Cc1ccccc1OP(=O)(Oc1ccccc1C)Oc1ccccc1C | -25 |
| CC(C)(C)OC(=O)NO | 57 |
| COC(=O)CSc1cc(C(F)(F)F)nc2ccccc12 | 96 to 98 |
| O=C(CC(c1ccccc1)c1ccccc1)c1ccccc1 | 96 |
| CC1CCCCC1NC(=O)Nc1ccccc1 (stereo not given) | 136 |
| CC(C)C(=O)C(C)C | -69 |
| Cc1ccnc2c1NC(=O)c1cccnc1N2C1CC1 | 265 |
| NNC(=O)c1cccc2cc[nH]c12 | 178 |
| CC12CCC(=O)C=C1CCC1C2CCC2(C)C(OCc3ccccc3)CCC12 (stereo not given) | 198 to 199 |

| SMILES | melting point [°C] |
| --- | --- |
| Clc1ncccc1-c1ccc(Br)cn1 | 132 |
| N#CCCSCCC#N | 24 to 25 |
| Brc1cc(Br)c(Oc2cc(Br)c(Br)cc2Br)c(Br)c1 | 131 to 132 |
| O=C(O)C=CC(=O)c1ccccc1 | 91 to 96 |
| O=C(O)c1cccc(Cn2cncn2)c1 | 209 to 210 |
| C1COCCOCCNCCOCCOCCN1 | 111 to 115 |
| CCOC(=O)C1N=C(c2ccccc2F)c2cc(Cl)ccc2NC1=O (stereo not given) | 194 |
| O=[N+]([O-])c1ccc(Br)cc1C(F)(F)F | 34 |
| C#CC(O)CCC (stereo not given) | -80 |
| COc1cccc(C=C2C(=O)NN=C2c2c(O)c3ccccc3n(C)c2=O)c1 | 254 |
| Nc1c(Cl)c(Cl)nc(Cl)c1Cl | 212 to 215 |
| Cc1cc(N)no1 | 59 to 63 |
| Cc1cc(C)c2c(=O)n3ccccc3cc2c1 | 114 |
| CCCCCCCSCCCCCCC | 70 |
| O=C(NC1Cc2ccccc21)c1ccccc1 (stereo not given) | 157 |
| CN1C(=O)C(=NNc2ccc(F)cc2)C(=O)N(C)C1=O | 191 |
| NC(=O)c1cccnc1Oc1ccccc1 | 162 to 163 |
| NC(=S)Nc1cccc(Br)c1 | 150 to 151 |
| Cc1ccc(N=Nc2ccc(C)cc2)cc1 | 140 |
| CNC(=S)C#N | 37 to 46 |
| O=C(O)Cc1ccccc1[N+](=O)[O-] | 141 |

| SMILES | melting point [°C] |
| --- | --- |
| O=C(O)Cc1cccc(Oc2ccccc2)c1 | 89 |
| CN1CCN(Cc2cccc(CO)c2)CC1 | 51 to 52 |
| Clc1ccc(Cl)c(Cl)c1 | 17 |
| CCC(O)c1cc(C)ccc1O (stereo not given) | 143 |
| CC(NC(CCCNC(=N)N)C(=O)O)C(=O)O (single isomer, unassigned; (+)) | 283 to 284 |
| COc1cc(C(O)C(=O)O)ccc1O (stereo not given) | 131 to 134 |
| COc1cccc(C(=O)CBr)c1 | 62 |
| C(=Nc1ccccc1Nc1ccccc1N=Cc1ccccc1)c1ccccc1 | 102 to 104 |
| CC(CC(N)C(=O)O)C(F)(F)F (racemic) | 273 to 275 |
| CN(C)C(=O)Nc1ccc(SC(F)(F)Cl)c(Cl)c1 | 114 |
| CC(=O)OCC(=O)C1(O)CCC2C3CCC4=CC(=O)CCC4(C)C3C(=O)CC21C (stereo not given) | 222 |
| C1CCC2NCCCC2C1 (stereo not given) | 37.5 to 45 |
| O=C(O)C1(Cl)CC2C=CC1C2 (stereo not given) | 139 to 141 |
| CC(=O)c1c(C)c(C(=O)O)n(C)c1C | 135 to 137 |
| Clc1cccc2c(C#Cc3ccccc3)c3ccccc3c(C#Cc3ccccc3)c12 | 199 to 204 |
| CC1=C(C)C2(C)C(C)=C(C)C12C (stereo not given) | 0.7 |
| CCCCCCCCCCCCCCCCCCCCCC(=O)OCC | 50 |
| Cc1cc(C)c(C=O)c(C)c1 | 14 |
| S=c1[nH]ccn1-c1cccc(Cl)c1 | 161 to 163 |
| CC1CCC2C(C)(C)C3CC12CCC3(C)O (stereo not given) | 86 |

Further lines, results first:

| melting point [°C] | SMILES |
| --- | --- |
| 125 to 126 | Cc1cc(C)c(CC(=O)CSC#N)c(C)c1 |
| 103 to 107 | Oc1c(F)c(F)c(F)c2c(F)c(F)c(F)c(F)c12 |
| 8 | COC1CCCCCCCCCCC1 |
| 45 | COC(=O)C1CC(=O)c2ccccc21 (stereo not given) |
| 54 to 57 | CC(O)C(N)CO (stereo not given) |
| 164 | N#C/C(=C/c1cccnc1)c1nc(-c2ccccc2)cs1 |
| 87 to 89 | Brc1ccc(-c2ccccn2)s1 |
| 141 | O=C1CNCCCNCC(=O)NCCCN1 |
| 100 | C[Si]1(c2ccccc2)O[Si](C)(c2ccccc2)O[Si](C)(c2ccccc2)O1 (stereo not given) |
| 155 | O=C1CSC2(CCN(CCCN3c4ccccc4Sc4ccc(Cl)cc43)CC2)N1 |
| 243 | CCOC(=O)C1=C(C)NC(=O)NC1c1cccc(Cl)c1Cl (stereo not given) |
| 190 | CC(=O)Oc1ccc(C2(c3ccc(OC(C)=O)cc3)Oc3ccccc3NC2=O)cc1 |
| 186 | Nc1ccc(/C(=C\c2ccccc2N)C(=O)O)cc1 |
| 119 | CC(C)(C)OC(=O)NC(CCC(N)=O)C(=O)O (stereo not given) |
| 196 to 200 | Nc1ccccc1C(=O)c1ccccc1C(=O)O |
| 133 to 134 | O=[N+]([O-])c1cc(/C=N\c2ccccc2)ccc1/C=N/c1ccccc1 |
| 55 to 56 | CC(=O)CCc1ccc(CCC(C)=O)cc1 |
| 207 to 211 | ON=CNc1ccc(Cl)nn1 |
| 275 | Nc1ccc(Nc2ccc(N)c3c2C(=O)c2ccccc2C3=O)c2c1C(=O)c1ccccc1C2=O |
| 96 | COc1ccc2c3c(n(C)c2c1)CCCC3 |
| 150 to 151 | CC(=O)c1ccc(NC(=O)CCl)cc1 |
| 113 to 115 | Fc1c(F)c(-c2c(F)c(F)c(Br)c(F)c2F)c(F)c(F)c1Br |
| 64 | O=[N+]([O-])c1ccc(S(=O)(=O)Cl)cc1C(F)(F)F |
| 112 | COc1ccc(S(N)(=O)=O)cc1 |

| melting point [°C] | SMILES |
| --- | --- |
| 348 | O=c1cc(-c2ccc(O)cc2)oc2cc(O)cc(O)c12 |
| 267 to 268 | O=[N+]([O-])c1ccc(NN=Cc2cccc3c(Br)cccc23)cc1 |
| 260 | COC(=O)Nc1nc2cc(C(=O)c3ccc(F)cc3)ccc2[nH]1 |
| -124 | CCCCOCC |
| 111 to 114 | O=C(Oc1c(F)c(F)c(F)c(F)c1F)c1ccc(OC2CCOCC2)cc1 |
| 108 | CCOC(=O)c1c(C)n[nH]c1N |
| 208 to 209 | Cc1cc(C)c(C2(C)CC(C(=O)c3cc4cc(Br)ccc4o3)C2)c(C)c1 (stereo not given) |
| 183 to 187 | O=C(N[C@@H](Cc1ccccc1)C(=O)O)OCC1c2ccccc2-c2ccccc21 |
| 184 | CC(C=CC=C(C)C=CC1=C(C)CC(O)CC1(C)C)=CC=CC=C(C)C=CC=C(C)C1C=C2C(C)(C)CC(O)CC2(C)O1 (stereo not given) |
| 160 to 166 | CCOC(=O)C1=C(C)OC(N)=C(C#N)C1c1ccc2c(c1)CCO2 (stereo not given) |
| 151 | O=C(O)c1cc(-c2ccco2)on1 |
| 128 | CC(C)(C)c1cc(O)ccc1O |
| 37 | CCOC(=O)c1cc(C)n(Cc2ccccc2)n1 |
| -119 | COC1CC1 |
| 114 | COc1ccc(C2Cc3ccccc3C(O)O2)cc1 (stereo not given) |
| 34 | CC(=O)c1ccc(N=C=O)cc1 |
| 186 to 188 | COc1cc(Cl)c(NC(C)=O)c(Cl)c1 |
| 185 to 187 | Cc1nc(-c2ccccc2)ncc1C(=O)NN |
| 18 | CN(C)CCN(C)CCN(C)C |
| -9 | CCc1cccc(Cc2ccccc2)c1 |
| 64.7 | COC(=O)[C@H](CC(=O)O)Cc1ccc2ccccc2c1 |
| 229 to 232 | S=c1[nH]c2ccc(Cl)cc2o1 |
| 50 | CC[C@H]1CC[C@H](C(=O)O)CC1 |

Reference: a melting point compilation (Tetko et al.)
